Experimental findings from ChEMBL document CHEMBL1201862, “PubChem BioAssay data set” (2004) are described below.

Experiment [1] in a line: Counterscreen for inhibitors of Trypanosoma brucei methionyl tRNA synthetase (MetRS): Luminescence-based cell-based high throughput dose response assay to identify compounds that are cytotoxic to Jurkat human T lymphocyte cells. The format is functional. On the technique in general: Counterscreens check selectivity or assay interference.
Experiment [2] can be described thus: Late stage counterscreen for inhibitors of Trypanosoma brucei methionyl tRNA synthetase (MetRS): Luminescence-based cell-based high throughput dose response assay to identify compounds that are cytotoxic to Jurkat human T lymphocyte cells. The format is functional.
The target of experiment [3] is T1, Methionyl-tRNA synthetase, putative (Trypanosoma brucei brucei, UniProt Q38C91).
T1 sequence (Q38C91 whole entry): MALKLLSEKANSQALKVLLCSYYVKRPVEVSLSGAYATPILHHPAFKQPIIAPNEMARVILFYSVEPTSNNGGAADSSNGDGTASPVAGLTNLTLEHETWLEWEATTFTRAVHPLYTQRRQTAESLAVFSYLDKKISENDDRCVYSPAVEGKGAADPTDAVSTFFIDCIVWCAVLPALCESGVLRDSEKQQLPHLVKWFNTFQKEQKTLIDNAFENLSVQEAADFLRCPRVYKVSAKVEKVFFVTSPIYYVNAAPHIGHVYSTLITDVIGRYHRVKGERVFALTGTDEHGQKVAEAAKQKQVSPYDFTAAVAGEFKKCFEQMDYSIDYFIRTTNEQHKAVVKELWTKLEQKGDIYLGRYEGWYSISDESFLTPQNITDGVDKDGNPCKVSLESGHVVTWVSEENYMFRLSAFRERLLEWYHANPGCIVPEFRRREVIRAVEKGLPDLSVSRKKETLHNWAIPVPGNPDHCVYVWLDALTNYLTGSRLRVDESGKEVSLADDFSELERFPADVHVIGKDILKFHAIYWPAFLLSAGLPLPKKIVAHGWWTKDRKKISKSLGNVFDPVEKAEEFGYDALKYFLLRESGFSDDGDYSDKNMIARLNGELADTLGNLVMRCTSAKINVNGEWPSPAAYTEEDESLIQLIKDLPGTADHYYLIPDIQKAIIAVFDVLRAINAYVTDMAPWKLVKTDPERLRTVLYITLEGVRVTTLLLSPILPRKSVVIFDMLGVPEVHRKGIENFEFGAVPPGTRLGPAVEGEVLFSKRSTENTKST
The format is functional, Trypanosoma brucei brucei strain 927/4 GUTat10.1.

The target in experiment [4] is T1, Methionyl-tRNA synthetase, putative. It is filed as functional, Trypanosoma brucei brucei strain 927/4 GUTat10.1. The source holds these as a separate data set.
Experiment [5] addresses Bifunctional protein GlmU (Mycobacterium tuberculosis, UniProt P9WMN3). The experiment can be described thus: Inhibitors of Mycobacterial Glucosamine-1-phosphate acetyl transferase (GlmU). Secondary screen. Also noted: species or system Mycobacterium tuberculosis H37Rv.
The target in experiment [6] is E3 ubiquitin-protein ligase Mdm2 (Homo sapiens, UniProt Q00987). The experiment can be described thus: MDM2-luc reporter signal enhancers, multi-concentration potency testing, MDM2 ubiquitin-protein ligase inhibitor program, whole-cell format, luminescence detection, 384-well microplate (AID 1394).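 Note: MDM2 E3 inhibitors raise luminescence so EC50 is for signal enhancement.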 The format is functional.
Sequence of E3 ubiquitin-protein ligase Mdm2 (Q00987 whole entry): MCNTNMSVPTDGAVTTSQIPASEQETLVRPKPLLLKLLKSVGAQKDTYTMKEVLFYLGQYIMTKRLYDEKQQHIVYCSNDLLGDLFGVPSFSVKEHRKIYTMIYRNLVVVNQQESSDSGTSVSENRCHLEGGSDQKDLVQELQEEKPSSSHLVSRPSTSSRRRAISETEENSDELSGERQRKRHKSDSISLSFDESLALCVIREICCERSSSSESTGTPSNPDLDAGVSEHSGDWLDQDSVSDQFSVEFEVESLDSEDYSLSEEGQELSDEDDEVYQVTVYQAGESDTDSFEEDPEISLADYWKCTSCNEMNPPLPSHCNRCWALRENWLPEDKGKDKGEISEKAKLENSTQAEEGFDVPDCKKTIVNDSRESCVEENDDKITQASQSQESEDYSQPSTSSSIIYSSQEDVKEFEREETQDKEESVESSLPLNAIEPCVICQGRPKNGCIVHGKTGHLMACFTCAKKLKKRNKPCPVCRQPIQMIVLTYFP
In experiment [7] the target is T2, Bcl-2-related protein A1 (Mus musculus, UniProt Q07440).
T2 sequence (Q07440 whole entry): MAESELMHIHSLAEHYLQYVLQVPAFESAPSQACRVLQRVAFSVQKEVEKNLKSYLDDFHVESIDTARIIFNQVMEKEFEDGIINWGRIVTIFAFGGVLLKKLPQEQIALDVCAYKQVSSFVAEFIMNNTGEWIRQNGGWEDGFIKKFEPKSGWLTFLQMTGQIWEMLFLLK
The experiment can be described thus: small-molecule antagonists of Bfl-1/BH3 interaction – biochemical, TR-FRET, mouse Bfl-1, confirmation (AID 621).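 Note: TR-FRET binding of GST-Bfl-1 to FITC-labelled Bid peptide via terbium antibody.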

Experiment [8] concerns the target Glyceraldehyde-3-phosphate dehydrogenase (Homo sapiens, UniProt P04406).
The target of experiment [9] is T2, Bcl-2-related protein A1. Description: Bfl-1 binding inhibitors, SAR follow-up, biochemical, fluorescence polarization (AID 1070). (Polarisation of emitted light reports the rotation of a fluorescent probe.)
Experiment [10] in a line: growth inhibition of PfATP4-mutant resistant parasites – NITD609-resistant line, SYBR Green, dry powder, dose response (AID 1159571).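 Note: parasites synchronized at ring stage by sorbitol before testing.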 The format is functional, cell-based.
A short description of experiment [11]: toxicity to human hepatoma HepG2 cells – cell-based, cherry-picked samples, cytotoxicity control, dose response (AID 1159577). It is filed as functional.
The nature of experiment [12]: Dd2 malaria parasite growth inhibition potency – SYBR Green, dry powder samples, dose response (AID 1159566).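 Note: potency for growth inhibition with lower SYBR green DNA signal.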 It is filed as functional, cell-based.
Experiment [13] is described as follows: toxicity to human HepG2 hepatoma cells – cell-based, plate reader, dry powder samples, cytotoxicity control, dose response (AID 1159569).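 Note: inhibitor potency with signal falling toward the positive control level.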 The format is functional.
Experiment [14] is described as follows: P. falciparum Dd2 growth inhibitors, dose response, SYBR Green, cherry-picked samples (AID 1159567). The format is functional, cell-based.
Experiment [15] is described as follows: growth inhibition of yeast DHODH-expressing 3D7 parasites – SYBR Green, dry powder samples, dose response (AID 1159570).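 Note: parasite growth measured after 72 hours of compound exposure.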 The format is functional, cell-based.
A short description of experiment [16]: Dd2 parasite growth inhibition in erythrocytes – SYBR Green, dry powder samples, set 9, dose response (AID 1159568). It is filed as functional, cell-based.
The target of experiment [17] is T3, SUMO-activating enzyme (Homo sapiens, UniProt Q9UBT2). The experiment can be described thus: blockers of UBC9-mediated SUMO conjugation – biochemical, AlphaScreen, SUMOylation inhibitor project, confirmation (AID 2018). The format is functional. (In general: In Alpha technology, singlet oxygen from a donor bead excites a nearby acceptor bead.)
T3 sequence (Q9UBE0 whole entry): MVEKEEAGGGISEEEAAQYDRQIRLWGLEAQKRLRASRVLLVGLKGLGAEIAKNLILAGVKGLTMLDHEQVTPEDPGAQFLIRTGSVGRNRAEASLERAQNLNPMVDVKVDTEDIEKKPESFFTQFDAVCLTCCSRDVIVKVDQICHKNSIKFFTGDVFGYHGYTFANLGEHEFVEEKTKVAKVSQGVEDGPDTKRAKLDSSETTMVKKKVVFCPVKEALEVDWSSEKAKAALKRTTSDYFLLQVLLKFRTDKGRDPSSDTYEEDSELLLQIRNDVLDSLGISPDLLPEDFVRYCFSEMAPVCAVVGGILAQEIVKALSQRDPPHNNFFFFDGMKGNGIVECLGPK
T3 sequence (Q9UBT2 whole entry): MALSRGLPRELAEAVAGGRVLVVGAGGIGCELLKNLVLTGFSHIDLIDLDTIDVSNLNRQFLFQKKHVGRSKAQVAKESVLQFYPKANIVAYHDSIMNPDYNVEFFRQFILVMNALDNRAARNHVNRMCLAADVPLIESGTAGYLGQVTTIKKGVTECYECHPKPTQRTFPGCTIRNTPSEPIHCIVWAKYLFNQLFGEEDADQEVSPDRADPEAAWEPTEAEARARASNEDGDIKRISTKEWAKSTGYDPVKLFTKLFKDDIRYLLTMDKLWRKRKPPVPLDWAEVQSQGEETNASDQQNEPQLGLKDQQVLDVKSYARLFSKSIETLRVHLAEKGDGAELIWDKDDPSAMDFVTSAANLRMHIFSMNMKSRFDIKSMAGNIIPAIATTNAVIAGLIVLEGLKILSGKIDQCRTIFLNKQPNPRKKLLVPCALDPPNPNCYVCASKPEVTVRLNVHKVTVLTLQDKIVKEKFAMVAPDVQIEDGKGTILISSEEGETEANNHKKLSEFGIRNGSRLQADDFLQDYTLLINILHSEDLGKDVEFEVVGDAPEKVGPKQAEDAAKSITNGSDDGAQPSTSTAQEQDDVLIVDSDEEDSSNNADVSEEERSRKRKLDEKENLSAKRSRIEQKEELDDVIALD
Experiment [18] has as its target T3, SUMO-activating enzyme. Description: blockers of SAE1/SAE2–UBC9 SUMO transfer – biochemical, HTRF, uHTS, primary screen (AID 2006). The format is protein-complex assay.
Experiment [19] deals with Eukaryotic translation initiation factor 4E (Mus musculus, UniProt P63073). Description: blockers of eIF4G binding by eIF4E – biochemical, TR-FRET, dose response (AID 855).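 Note: potency for disrupting eIF4E binding to eIF4GI seen as loss of FRET.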 The format is functional.
Sequence of Eukaryotic translation initiation factor 4E (P63073 whole entry): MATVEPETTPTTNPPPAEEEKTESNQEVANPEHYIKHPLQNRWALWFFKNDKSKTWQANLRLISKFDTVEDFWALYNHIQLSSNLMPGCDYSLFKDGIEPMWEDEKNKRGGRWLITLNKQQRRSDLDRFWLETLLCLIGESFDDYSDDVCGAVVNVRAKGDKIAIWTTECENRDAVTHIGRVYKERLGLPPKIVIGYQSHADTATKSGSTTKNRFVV

Usually IC50 stands for the concentration at which inhibition is half-maximal. As usually defined, the EC50 is the concentration giving half of the maximal effect. As usually defined, the AC50 is the midpoint of the concentration-response curve, whichever way the signal moves.

Activity calls are given as the source filed them. Bounds are passed on as bounds.

Sequence of Bifunctional protein GlmU (P9WMN3 whole entry): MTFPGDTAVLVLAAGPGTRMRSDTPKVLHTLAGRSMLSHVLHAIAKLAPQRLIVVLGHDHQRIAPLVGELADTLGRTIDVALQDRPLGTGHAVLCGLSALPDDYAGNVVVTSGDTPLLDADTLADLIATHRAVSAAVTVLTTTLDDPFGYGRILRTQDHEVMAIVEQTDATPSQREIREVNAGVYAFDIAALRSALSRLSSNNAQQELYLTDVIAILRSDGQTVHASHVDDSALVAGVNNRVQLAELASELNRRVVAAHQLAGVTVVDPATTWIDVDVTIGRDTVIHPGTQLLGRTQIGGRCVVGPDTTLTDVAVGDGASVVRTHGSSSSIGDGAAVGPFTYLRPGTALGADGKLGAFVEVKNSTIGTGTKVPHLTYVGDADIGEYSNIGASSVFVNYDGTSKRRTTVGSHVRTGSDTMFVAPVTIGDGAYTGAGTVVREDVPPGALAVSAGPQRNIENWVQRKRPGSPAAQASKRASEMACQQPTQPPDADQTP
Sequence of Glyceraldehyde-3-phosphate dehydrogenase (P04406 whole entry): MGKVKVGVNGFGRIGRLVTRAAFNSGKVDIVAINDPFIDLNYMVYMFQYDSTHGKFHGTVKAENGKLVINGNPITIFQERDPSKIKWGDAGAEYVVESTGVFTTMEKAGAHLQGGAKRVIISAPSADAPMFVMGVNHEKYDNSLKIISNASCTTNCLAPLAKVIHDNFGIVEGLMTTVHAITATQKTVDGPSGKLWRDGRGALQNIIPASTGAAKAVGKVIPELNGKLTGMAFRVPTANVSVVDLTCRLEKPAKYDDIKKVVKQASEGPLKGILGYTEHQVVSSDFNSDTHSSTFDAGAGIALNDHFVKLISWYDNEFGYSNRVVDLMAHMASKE

Regarding `O=C(NCc1nc2ccccc2[nH]1)C1=C[C@@H](c2ccc(Br)cc2)C[C@@H](OCc2ccc(CO)cc2)O1`, the IC50 in experiment [1] is 33.7 µM (inactive); in [2], 66.6 µM (inactive); in experiment [3] it was 498 nM (active); in experiment [4], 1.33 µM (active).

`O=C1C(Cl)=C(Nc2ccccc2O)C(=O)N1CCc1ccccc1`: the half-maximal inhibitory concentration (IC50) in [5] is 85.3 µM (active).

Take `OC(c1nnc(-c2ccccc2)o1)c1cccs1` (configuration not stated): in experiment [6], the EC50 is 441 µM (not active).

`O=C1C(Cl)=C(N2CCOCC2)C(=O)N1c1ccc(Cl)cc1Cl`: the IC50 against Bcl-2-related protein A1 [7] is > 100 µM (not active); in experiment [8], > 10 µM (inconclusive); at Bcl-2-related protein A1 [9], > 100 µM (not active).

As for `CCOc1ccc(NC(=S)NCCCN2CCOCC2)cc1`, in [6], the EC50 was 1.95 µM (not active).

For the compound `CCCCCCCCCC1NC(C(=O)O)Cc2c1[nH]c1ccccc21` (configuration not stated), the IC50 in experiment [1] was 83.3 µM (inactive); in experiment [2] it was > 83.3 µM (inactive); in [3] it was 1960 nM (active); in experiment [4] it was 3.75 µM (active).

Regarding `OC[C@@H]1[C@@H](c2ccccc2)C2(CN(Cc3ccc4c(c3)OCO4)C2)N1Cc1ccccc1`, the AC50 was 616 nM (active) in [10]; > 39 µM (inactive) in experiment [11]; 444 nM (active) in [12]; 17.9 µM (active) in experiment [13]; 619 nM (active) in experiment [14]; 634 nM (active) in experiment [15].

With `C[C@H]1CN([C@@H](C)CO)C(=O)c2cccc(NC(=O)c3ccc(-c4nccs4)cc3)c2O[C@H]1CN(C)C(=O)Nc1ccc(C(F)(F)F)cc1`, the AC50 in [16] was 8.06 µM (active).

Take `C[C@H](CO)N1C[C@H](C)[C@@H](CN(C)S(=O)(=O)c2ccccc2)OCCCC[C@H](C)Oc2ccc(NC(=O)Nc3ccc4c(c3)OCO4)cc2C1=O`: the AC50 in experiment [16] was 2.35 µM (active).

For the compound `COc1ccc2c3c([nH]c2c1)[C@H](CO)N(C(=O)CN(C)C)CC31CCN(CC2CCCCC2)CC1`, the AC50 in experiment [10] is 1120 nM (active); in [11] it was > 39 µM (inactive); in experiment [12], 433 nM (active); in experiment [13], 19.1 µM (active); in experiment [14] it was 644 nM (active); in experiment [15], 46.8 nM (active).

Consider `O=C(O)CCCCC1CCSS1` (stereo not drawn) [LIPOIC ACID, ALPHA], for which the IC50 is 620 nM (active) at SUMO-activating enzyme [17], 4.74 µM (active) on SUMO-activating enzyme [18], 16.6 µM (active) in [19] and 3.91 µM (active) in experiment [5].
